Active and inactive are the calls of the source. The calls are words filed in the database; no cut-off is given here.
What was measured:
[1] = biological target: Beta-1 adrenergic receptor (Homo sapiens, UniProt P08588); test: In vitro agonistic activity assessed by measurement of cAMP accumulation level in CHO cells expressing human beta1-AR receptor; assay type: functional, cell-based
[2] = biological target: T1, Adrenergic receptor beta (Homo sapiens, UniProt P08588+P07550+P13945); test: In vitro intrinsic activity is given as percentage of maximal stimulation relative to isoproterenol; Not active; assay type: functional
[3] = biological target: T2, Beta-3 adrenergic receptor (Homo sapiens, UniProt P13945); test: In vitro agonistic activity assessed by measurement of cAMP accumulation level in CHO cells expressing human beta3-AR receptor; In active; assay type: functional, cell-based
Target sequence in this assay (P13945 whole entry): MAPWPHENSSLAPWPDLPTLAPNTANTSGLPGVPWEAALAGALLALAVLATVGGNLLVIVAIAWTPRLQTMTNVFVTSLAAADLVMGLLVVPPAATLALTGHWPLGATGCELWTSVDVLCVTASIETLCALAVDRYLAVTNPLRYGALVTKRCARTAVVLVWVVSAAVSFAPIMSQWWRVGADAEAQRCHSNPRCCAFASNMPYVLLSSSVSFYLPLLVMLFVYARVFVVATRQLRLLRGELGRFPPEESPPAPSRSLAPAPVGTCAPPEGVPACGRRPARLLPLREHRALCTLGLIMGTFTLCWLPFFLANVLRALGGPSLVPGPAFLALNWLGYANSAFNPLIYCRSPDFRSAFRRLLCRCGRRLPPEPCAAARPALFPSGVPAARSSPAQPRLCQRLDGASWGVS

[4] = biological target: T2, Beta-3 adrenergic receptor; test: In vitro intrinsic activity is given as percentage of maximal stimulation relative to isoproterenol; In active; assay type: functional
Target sequence in this assay (P13945 whole entry): as above

[5] = biological target: T2, Beta-3 adrenergic receptor; test: […] of cAMP accumulation level in CHO cells expressing human beta3-AR receptor at 10 uM concentration; assay type: functional, cell-based
Target sequence in this assay (P13945 whole entry, looked up): as the sequence (P13945 whole entry) above

[6] = biological target: T2, Beta-3 adrenergic receptor; test: In vitro agonistic activity assessed by measurement of cAMP accumulation level in CHO cells expressing human beta3-AR receptor; assay type: functional, cell-based
Target sequence in this assay (P13945 whole entry): as above

[7] = biological target: T1, Adrenergic receptor beta; test: In vitro agonistic activity against cAMP accumulation level in CHO cells expressing human beta-AR receptor; assay type: functional, cell-based

Sequence of Beta-1 adrenergic receptor (P08588 whole entry): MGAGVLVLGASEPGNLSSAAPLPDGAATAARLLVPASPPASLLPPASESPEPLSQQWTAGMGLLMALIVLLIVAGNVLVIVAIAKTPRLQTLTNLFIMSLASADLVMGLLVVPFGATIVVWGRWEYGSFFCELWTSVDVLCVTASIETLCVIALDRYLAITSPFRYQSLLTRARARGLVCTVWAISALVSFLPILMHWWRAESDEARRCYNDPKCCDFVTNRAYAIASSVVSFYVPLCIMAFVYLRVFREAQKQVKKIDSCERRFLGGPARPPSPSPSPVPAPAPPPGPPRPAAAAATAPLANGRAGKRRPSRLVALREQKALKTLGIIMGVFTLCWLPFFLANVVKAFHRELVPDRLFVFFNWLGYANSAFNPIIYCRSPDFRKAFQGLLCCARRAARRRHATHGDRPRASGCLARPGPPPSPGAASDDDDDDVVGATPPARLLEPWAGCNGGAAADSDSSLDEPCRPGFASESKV

For `O=C(NCc1ccc(Cl)cc1Cl)N1CCC(Nc2ccc(CCNC[C@H](O)COc3ccc(O)cc3)cc2)CC1`, the EC50 [1] was 0.254 µM and the Intrinsic activity [2] was “inactive”.

`NC(=O)N1CCC(Nc2ccc(CCNC[C@H](O)COc3ccc(O)cc3)cc2)CC1` was tested, and the EC50 [1] was 0.511 µM.

Compound `CC(C)NC(=O)N1CCC(Nc2ccc(CCNC[C@H](O)COc3ccc(O)cc3)cc2)CC1` has an EC50 [1] of 0.943 µM.

`CCN(CC)C(=O)N1CCC(Nc2ccc(CCNC[C@H](O)COc3ccc(O)cc3)cc2)CC1` was tested, and the EC50 [1] was 0.164 µM.

`O=C(NCc1ccc(F)cc1F)N1CCC(Nc2ccc(CCNC[C@H](O)COc3ccc(O)cc3)cc2)CC1` was tested, and the EC50 [1] was 0.46 µM and the Intrinsic activity [2] was “inactive”.

`CNC(=O)N1CCC(Nc2ccc(CCNC[C@H](O)COc3ccc(O)cc3)cc2)CC1` showed an EC50 [1] of 0.35 µM.

With `CCCCCCCCNC(=O)N1CCC(Nc2ccc(CCNC[C@H](O)COc3cccc4[nH]c(O)nc34)cc2)CC1` the EC50 [3] was “Not Active” and the EC50 [4] was “Not Active”.

In the case of `O=C(NCc1c(F)cccc1F)N1CCC(Nc2ccc(CCNC[C@H](O)COc3ccc(O)cc3)cc2)CC1`, the EC50 [1] is reported as 0.75 µM and the Intrinsic activity [2] is reported as “inactive”.

In the case of `CCCCCCCCNC(=O)N1CCC(Nc2ccc(CCNC[C@H](O)COc3ccc(O)c4c3CCC(=O)N4)cc2)CC1`, the EC50 [1] is reported as 0.088 µM.

For `CCCCCCCCNC(=O)N1CCC(Nc2ccc(CCNC[C@H](O)c3ccc(O)c(C(N)=O)c3)cc2)CC1`, the Intrinsic activity [5] was 42%.

Work on `O=C(NCCCC1CCCC1)N1CCC(Nc2ccc(CCNC[C@H](O)COc3ccc(O)cc3)cc2)CC1` yielded an EC50 [1] of 0.187 µM.

`CS(=O)(=O)Nc1cc(OC[C@@H](O)CNCCc2ccc(NC3CCN(C(=O)NCc4cc(F)ccc4F)CC3)cc2)ccc1O` showed an EC50 [1] of 0.423 µM.

For `CCCCCCCCNC(=O)N1CCC(Nc2ccc(CCNC[C@H](O)COc3ccc(O)cc3)cc2)CC1`, the EC50 [1] was 0.61 µM and the EC50 [6] was 0.008 µM.

In the case of `CCCCCCCCNC(=O)N1CCC(Nc2ccc(CCNC[C@H](O)COc3ccc(F)cc3)cc2)CC1`, the inhibition [5] is reported as 37%.

`O=C(NCc1cc(F)ccc1F)N1CCC(Nc2ccc(CCNC[C@H](O)COc3ccc(O)cc3)cc2)CC1` was tested, and the EC50 [1] was 0.522 µM and the Intrinsic activity [2] was “inactive”.

Compound `CS(=O)(=O)Nc1cc([C@@H](O)CNCCc2ccc(NC3CCN(C(=O)NCc4cc(F)ccc4F)CC3)cc2)ccc1O` has an EC50 [1] of 2.64 µM and an EC50 [7] of 0.01 µM.

Work on `O=C(NCc1ccc(F)cc1)N1CCC(Nc2ccc(CCNC[C@H](O)COc3ccc(O)cc3)cc2)CC1` yielded an EC50 [1] of 0.109 µM and an EC50 [6] of 0.041 µM.

In the case of `O=C(NC1CCCCC1)N1CCC(Nc2ccc(CCNC[C@H](O)COc3ccc(O)cc3)cc2)CC1`, the EC50 [1] is reported as 0.085 µM.

With `O=C(NCc1ccccc1F)N1CCC(Nc2ccc(CCNC[C@H](O)COc3ccc(O)cc3)cc2)CC1` the EC50 [1] was 0.26 µM and the Intrinsic activity [2] was “inactive”.

From ChEMBL document CHEMBL1133871, “4-Aminopiperidine ureas as potent selective agonists of the human beta(3)-adrenergic receptor” (Bioorg Med Chem Lett, 2001)
